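Protocol summary: plate cells (96-well), add compound at 5 concentrations, incubate 48 h, interpolate endpoints linearly. Abbreviation: GI50, concentration required for 50% inhibition of growth. TGI: total growth inhibition.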
Key:
Experiment in all cases: NCI anticancer screen, dose series, 48 h
MDA-MB-435 = tested on: MDA-MB-435
A549 NSCLC = tested on: A549 NSCLC
CAKI-1 renal = tested on: CAKI-1 renal
SF-539 CNS = tested on: SF-539 CNS
K-562 leukemia = tested on: K-562 leukemia
SR leukemia = tested on: SR leukemia
SK-MEL-5 melanoma = tested on: SK-MEL-5 melanoma
IGROV1 ovarian = tested on: IGROV1 ovarian
OVCAR-3 ovarian = tested on: OVCAR-3 ovarian
MOLT-4 leukemia = tested on: MOLT-4 leukemia
PC-3 prostate = tested on: PC-3 prostate
M14 melanoma = tested on: M14 melanoma
NCI-H226 lung = tested on: NCI-H226 lung
NCI-H23 lung = tested on: NCI-H23 lung
OVCAR-4 ovarian = tested on: OVCAR-4 ovarian
DU-145 prostate = tested on: DU-145 prostate
MDA-MB-231 breast = tested on: MDA-MB-231 breast
KM12 colon = tested on: KM12 colon
NCI/ADR-RES ovarian = tested on: NCI/ADR-RES ovarian
COLO 205 colon = tested on: COLO 205 colon
HL-60(TB) leukemia = tested on: HL-60(TB) leukemia
HOP-92 NSCLC = tested on: HOP-92 NSCLC
U251 CNS = tested on: U251 CNS
HCT-116 colon = tested on: HCT-116 colon
RPMI-8226 leukemia = tested on: RPMI-8226 leukemia
SK-MEL-28 melanoma = tested on: SK-MEL-28 melanoma
SW-620 colon = tested on: SW-620 colon
UO-31 renal = tested on: UO-31 renal
RXF 393 renal = tested on: RXF 393 renal
EKVX NSCLC = tested on: EKVX NSCLC
NCI-H522 lung = tested on: NCI-H522 lung
T-47D breast = tested on: T-47D breast
NCI-H460 lung = tested on: NCI-H460 lung
OVCAR-5 ovarian = tested on: OVCAR-5 ovarian
CCRF-CEM leukemia = tested on: CCRF-CEM leukemia
A498 renal = tested on: A498 renal
HCC-2998 colon = tested on: HCC-2998 colon
SF-268 CNS = tested on: SF-268 CNS
SNB-75 CNS = tested on: SNB-75 CNS
SN12C renal = tested on: SN12C renal
UACC-257 melanoma = tested on: UACC-257 melanoma
OVCAR-8 ovarian = tested on: OVCAR-8 ovarian
MALME-3M melanoma = tested on: MALME-3M melanoma
MCF7 breast = tested on: MCF7 breast
HCT-15 colon = tested on: HCT-15 colon
SNB-19 CNS = tested on: SNB-19 CNS
SF-295 CNS = tested on: SF-295 CNS
HOP-62 NSCLC = tested on: HOP-62 NSCLC
SK-MEL-2 melanoma = tested on: SK-MEL-2 melanoma
TK-10 renal = tested on: TK-10 renal

Structure (SMILES): C#C[C@]1(O)CC[C@H]2[C@@H]3CC=C4c5sc(-c6ccc(O)c(O)c6)nc5CC[C@]4(C)[C@H]3CC[C@@]21C
- GI50 (MDA-MB-435): 3.11 µM
- TGI (MDA-MB-435): 13.2 µM
- GI50 (A549 NSCLC): 3.33 µM
- TGI (A549 NSCLC): > 100 µM
- GI50 (CAKI-1 renal): 2.98 µM
- TGI (CAKI-1 renal): 15.1 µM
- GI50 (SF-539 CNS): 0.333 µM
- TGI (SF-539 CNS): 1.67 µM
- GI50 (K-562 leukemia): 1.21 µM
- TGI (K-562 leukemia): > 100 µM
- GI50 (SR leukemia): 0.659 µM
- TGI (SR leukemia): > 100 µM
- GI50 (SK-MEL-5 melanoma): 2.13 µM
- TGI (SK-MEL-5 melanoma): 5.15 µM
- GI50 (IGROV1 ovarian): 4.18 µM
- TGI (IGROV1 ovarian): > 100 µM
- GI50 (OVCAR-3 ovarian): 2.92 µM
- TGI (OVCAR-3 ovarian): 16 µM
- GI50 (MOLT-4 leukemia): 0.435 µM
- TGI (MOLT-4 leukemia): > 100 µM
- GI50 (PC-3 prostate): 0.833 µM
- TGI (PC-3 prostate): > 100 µM
- GI50 (M14 melanoma): 2.09 µM
- TGI (M14 melanoma): 5.87 µM
- GI50 (NCI-H226 lung): 2.22 µM
- TGI (NCI-H226 lung): > 100 µM
- GI50 (NCI-H23 lung): 2.76 µM
- TGI (NCI-H23 lung): > 100 µM
- GI50 (OVCAR-4 ovarian): 3.55 µM
- TGI (OVCAR-4 ovarian): > 100 µM
- GI50 (DU-145 prostate): 3.03 µM
- TGI (DU-145 prostate): > 100 µM
- GI50 (MDA-MB-231 breast): 2.97 µM
- TGI (MDA-MB-231 breast): > 100 µM
- GI50 (KM12 colon): 2.97 µM
- TGI (KM12 colon): 55 µM
- GI50 (NCI/ADR-RES ovarian): 2.81 µM
- TGI (NCI/ADR-RES ovarian): > 100 µM
- GI50 (COLO 205 colon): 2.42 µM
- TGI (COLO 205 colon): 5.81 µM
- GI50 (HL-60(TB) leukemia): 1.77 µM
- TGI (HL-60(TB) leukemia): > 100 µM
- GI50 (HOP-92 NSCLC): 3.78 µM
- TGI (HOP-92 NSCLC): > 100 µM
- GI50 (U251 CNS): 0.68 µM
- TGI (U251 CNS): 4.42 µM
- GI50 (HCT-116 colon): 1.23 µM
- TGI (HCT-116 colon): 2.87 µM
- GI50 (RPMI-8226 leukemia): 0.348 µM
- TGI (RPMI-8226 leukemia): > 100 µM
- GI50 (SK-MEL-28 melanoma): 1.39 µM
- TGI (SK-MEL-28 melanoma): 4.19 µM
- GI50 (SW-620 colon): 2.64 µM
- TGI (SW-620 colon): > 100 µM
- GI50 (UO-31 renal): 1.43 µM
- TGI (UO-31 renal): 12.9 µM
- GI50 (RXF 393 renal): 0.157 µM
- TGI (RXF 393 renal): 0.658 µM
- GI50 (EKVX NSCLC): 2.14 µM
- TGI (EKVX NSCLC): 55 µM
- GI50 (NCI-H522 lung): 1.69 µM
- TGI (NCI-H522 lung): 3.64 µM
- GI50 (T-47D breast): 3.27 µM
- TGI (T-47D breast): 44.7 µM
- GI50 (NCI-H460 lung): 3.13 µM
- TGI (NCI-H460 lung): 30.8 µM
- GI50 (OVCAR-5 ovarian): 3.04 µM
- TGI (OVCAR-5 ovarian): > 100 µM
- GI50 (CCRF-CEM leukemia): 0.764 µM
- TGI (CCRF-CEM leukemia): > 100 µM
- GI50 (A498 renal): 1.76 µM
- TGI (A498 renal): 4.23 µM
- GI50 (HCC-2998 colon): 3.67 µM
- TGI (HCC-2998 colon): 14.7 µM
- GI50 (SF-268 CNS): 2.47 µM
- TGI (SF-268 CNS): > 100 µM
- GI50 (SNB-75 CNS): 0.339 µM
- TGI (SNB-75 CNS): 9.95 µM
- GI50 (SN12C renal): 3.03 µM
- TGI (SN12C renal): > 100 µM
- GI50 (UACC-257 melanoma): 2 µM
- TGI (UACC-257 melanoma): 5.91 µM
- GI50 (OVCAR-8 ovarian): 3.3 µM
- TGI (OVCAR-8 ovarian): 14.5 µM
- GI50 (MALME-3M melanoma): 1.63 µM
- TGI (MALME-3M melanoma): 4.8 µM
- GI50 (MCF7 breast): 1.09 µM
- TGI (MCF7 breast): 6.06 µM
- GI50 (HCT-15 colon): 1.26 µM
- TGI (HCT-15 colon): 4.25 µM
- GI50 (SNB-19 CNS): 2.09 µM
- TGI (SNB-19 CNS): 22.1 µM
- GI50 (SF-295 CNS): 0.303 µM
- TGI (SF-295 CNS): 1.22 µM
- GI50 (HOP-62 NSCLC): 3.91 µM
- TGI (HOP-62 NSCLC): > 100 µM
- GI50 (SK-MEL-2 melanoma): 2.93 µM
- TGI (SK-MEL-2 melanoma): 12 µM
- GI50 (TK-10 renal): 9.21 µM
- TGI (TK-10 renal): > 100 µM

Reference: PubChem BioAssay (NCI)
